System: 519858-162-T-J1-PDC complex spheroid viability
Assay: Anticancer human tumor 519858-162-T-J1-PDC patient-derived colon adenocarcinoma cell line growth inhibition [GQUAD]
Details: for IC50: curve of first compound; for viability, T/C: stronger effect = lower value
Method in brief: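 Multi-cell-type spheroids of tumor cells with HUVEC and mesenchymal stem cells, treated with drug combinations. Concentrations descend in half-log steps from near clinical Cmax, or from 10 microM where Cmax is unknown; viability read-out.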
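Also: spheroids exposed to compounds for 7 days.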
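For viability, T/C in this document: 100% = DMSO vehicle control viability.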

## CC(=O)O[C@H]1C(=O)[C@@]2(C)[C@H]([C@H](OC(=O)c3ccccc3)[C@]3(O)C[C@H](OC(=O)[C@H](O)[C@@H](NC(=O)c4ccccc4)c4ccccc4)C(C)=C1C3(C)C)[C@]1(OC(C)=O)CO[C@@H]1C[C@@H]2O + Cc1cnc(CNC(=O)c2c(=O)c3ccc(N4CCCN(C)CC4)nc3n3c2sc2ccccc23)cn1
Second compound 0.0316 µM
  IC50: > 10 µM
Second compound 0.1 µM
  IC50: > 10 µM
Second compound 0.316 µM
  IC50: > 10 µM
Second compound 1 µM
  IC50: > 10 µM
Second compound 3.16 µM
  IC50: > 10 µM
Second compound 10 µM
  IC50: < 0.0316 µM
Second compound 0.0316 µM, first compound 0.0316 µM
  viability, T/C: 78.7%
Second compound 0.0316 µM, first compound 0.1 µM
  viability, T/C: 93.7%
Second compound 0.0316 µM, first compound 0.316 µM
  viability, T/C: 72.2%
Second compound 0.0316 µM, first compound 1 µM
  viability, T/C: 75.3%
Second compound 0.0316 µM, first compound 3.16 µM
  viability, T/C: 92.5%
Second compound 0.0316 µM, first compound 10 µM
  viability, T/C: 93.3%
Second compound 0.1 µM, first compound 0.0316 µM
  viability, T/C: 104%
Second compound 0.1 µM, first compound 0.1 µM
  viability, T/C: 90.9%
Second compound 0.1 µM, first compound 0.316 µM
  viability, T/C: 74.8%
Second compound 0.1 µM, first compound 1 µM
  viability, T/C: 91.5%
Second compound 0.1 µM, first compound 3.16 µM
  viability, T/C: 103%
Second compound 0.1 µM, first compound 10 µM
  viability, T/C: 67.8%
Second compound 0.316 µM, first compound 0.0316 µM
  viability, T/C: 65.2%
Second compound 0.316 µM, first compound 0.1 µM
  viability, T/C: 57.1%
Second compound 0.316 µM, first compound 0.316 µM
  viability, T/C: 60.6%
Second compound 0.316 µM, first compound 1 µM
  viability, T/C: 68.9%
Second compound 0.316 µM, first compound 3.16 µM
  viability, T/C: 70.9%
Second compound 0.316 µM, first compound 10 µM
  viability, T/C: 73.4%
Second compound 1 µM, first compound 0.0316 µM
  viability, T/C: 55.7%
Second compound 1 µM, first compound 0.1 µM
  viability, T/C: 70.9%
Second compound 1 µM, first compound 0.316 µM
  viability, T/C: 48.5%
Second compound 1 µM, first compound 1 µM
  viability, T/C: 58.6%
Second compound 1 µM, first compound 3.16 µM
  viability, T/C: 67.1%
Second compound 1 µM, first compound 10 µM
  viability, T/C: 56.1%
Second compound 3.16 µM, first compound 0.0316 µM
  viability, T/C: 59.7%
Second compound 3.16 µM, first compound 0.1 µM
  viability, T/C: 67.7%
Second compound 3.16 µM, first compound 0.316 µM
  viability, T/C: 45.9%
Second compound 3.16 µM, first compound 1 µM
  viability, T/C: 66.8%
Second compound 3.16 µM, first compound 3.16 µM
  viability, T/C: 51.4%
Second compound 3.16 µM, first compound 10 µM
  viability, T/C: 59.9%
Second compound 10 µM, first compound 0.0316 µM
  viability, T/C: 26.7%
Second compound 10 µM, first compound 0.1 µM
  viability, T/C: 44.4%
Second compound 10 µM, first compound 0.316 µM
  viability, T/C: 38.7%
Second compound 10 µM, first compound 1 µM
  viability, T/C: 58.5%
Second compound 10 µM, first compound 3.16 µM
  viability, T/C: 48.9%
Second compound 10 µM, first compound 10 µM
  viability, T/C: 69.6%

Reference: PubChem BioAssay AID2060507 (Molecular Pharmacology Branch, DTP, NCI, 2025)
